Measurements: US11647748B2, “Sulphonamides as methionine metabolic pathway inhibitors” (MIGAL-GALILEE RESEARCH INSTITUTE LTD., priority 2018, dated 2023)
Blank lines part the entries; values can stand above or below the compound they belong to.

Legend:
Tobacco CGS [1] = biological target: T1, Tobacco CGS (Nicotiana tabacum, UniProt Q9ZPL5); assay: TEV experiment (relative to DMSO); type: biochemical; set-up: 6xHIS (N, cleaved yes); GB1 solubility tag (N, cleaved yes); made in house; host or cells: E. coli BL-21
T1 sequence (Q9ZPL5 79-540): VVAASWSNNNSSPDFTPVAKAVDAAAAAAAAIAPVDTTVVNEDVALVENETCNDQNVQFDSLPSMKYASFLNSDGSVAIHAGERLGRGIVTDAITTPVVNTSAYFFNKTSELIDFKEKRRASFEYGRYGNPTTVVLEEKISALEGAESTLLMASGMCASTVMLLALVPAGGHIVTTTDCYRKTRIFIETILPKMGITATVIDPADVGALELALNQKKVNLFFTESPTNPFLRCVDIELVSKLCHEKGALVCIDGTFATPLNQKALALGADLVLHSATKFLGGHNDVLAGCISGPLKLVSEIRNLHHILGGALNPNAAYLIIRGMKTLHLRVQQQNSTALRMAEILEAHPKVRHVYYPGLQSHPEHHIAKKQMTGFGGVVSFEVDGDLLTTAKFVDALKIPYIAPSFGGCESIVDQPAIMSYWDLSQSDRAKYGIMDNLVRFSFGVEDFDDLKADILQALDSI
Description: As discussed above, the first reaction in methionine biosynthesis in plants is catalyzed by the CGS enzyme. In this reaction, the formation of cystathionine is conducted by the γ-replacement of the phosphoryl substituent of O-phospho-homoserine by cysteine and consecutive release of an orthophosphate group.
Expression of recombinant CGS was done by transforming the pET-11 vector containing the DNA sequence of Tobacco CGS with a 6×HIS tag and GB1 solubility tag followed by TEV cleavage site into BL-21 cells. These cells were cultured at 37° C. and optical density (OD)=0.8 protein at 600 nm, and the expression was induced by addition of 1 mM IPTG for 16 hours at 25° C. The protein was purified to homogeneity onto nickel column and cleaved by o/n dialysis with the TEV protease. A second nickel column was used to separate the cleaved CGS from the TEV and GB1 solubility tag.
The direct activity of CGS was tested using the Malachite Green Phosphate Assay Kit (Sigma-Aldrich, cat #MAK307-1KT). It is a highly sensitive and robust experiment used to measure the release of free orthophosphate group based on quantification of the green-coloured complex formed between Malachite Green, molybdate, and free orthophosphate. The rapid colour formation from the reaction can be conveniently measured on a spectrophotometer via the absorbance at 620 nm.
The assay mixture (100 μl) contained 50 mM MOPS-NaOH (pH 7.5), 150 mM NaCl, 0.1 mM PLP and 1 μM purified CGS. The compounds of the present invention were added at a final concentration of 50 μM and reactions were initiated by adding 2 mM cysteine and 3 mM 0-phospho-L-homo-serine. After two-hour incubation at 25° C., 80 μL of each sample were transferred into a new 96 well-plate containing 20 μl of Malachite Green Reagent and incubated for additional 30 min at 25° C. Colour development was measured by a plate reader Tecan M200 (620 nm).

Arabidopsis thaliana = assay: Arabidopsis root length (root growth inhibition); type: in vivo; conditions: 50 μM compound; for Arabidopsis (relative to DMSO): root length ratio vs DMSO control, lower = shorter root; for Arabidopsis root length: ratio vs DMSO control, Table 4
Description: Finally, FIGS. 7a-7h are the photos of the Arabidopsis thaliana plants and the inhibition of their roots growth by the compounds of the present invention. These experiments were conducted as follows. Seeds were washed with 70% ethanol for one minute and then with sterile water. Sterilisation was performed with 50% bleaching solution (3%) and 0.2% Triton x-100 for ten minutes followed by a five-time wash with sterile water. The seeds were placed in six well-plates with half Murashige and Skoog medium (MS; Duchefa, Haarlem, Netherlands), containing 1% sucrose (w/v), pH 5.8. The plates with Arabidopsis thaliana seeds were placed at 4° C. for two days and then transferred for seven days to growth chamber (22±2° C.) at day/light cycles of 16/8 h. The plates were placed vertically. In each plate, a control including 0.1% DMSO in the medium was added. The compounds of the present invention were tested for their herbicidal efficiency by diluting 1000 times a 50 mM stock in DMSO leading to a final concentration of 50 μM with 0.1% DMSO.
In Tables 1 and 2 above, Arabidopsis root length was measured after addition of 50-μM compound compared with the negative control (DMSO) treatment. Length values indicate the ratio between non-treated plates ([…]) and the length after the addition of 50 μM of each compound. Lower values indicate shorter root length, and consequently, larger effect.

Roquette = Roquette assay spray; type: in vivo
BY2 Tobacco cells = assay: BY-2 viability assay (PrestoBlue); type: cell-based; conditions: viability relative to DMSO-treated cells, 25 μM, 48 hours; for Tobacco cells BY-2 (all (relative to DMSO)): Table 3; for Tobacco cells BY-2 results/DMSO: Table 5
Description: Reference is now made to FIG. 5 showing the BY-2 viability assay. In this assay, the viability of BY2 Tobacco cells was tested following treatment with the compounds of the present invention. For this purpose, cells were cultured in Murashige and Skoog basal medium (Sigma-Aldrich, Cat #M0404), supplemented with 2,4-dichloro-phenoxyacetic acid (0.2 mg/L), and sucrose (3%), and incubated in the dark, at 25° C. and then sub-cultured at a 1:15 dilution in fresh media every 7 days.
Before treatment, the cell suspension was adjusted to OD=0.4 (at 600 nm) and seeded in 6 well plates with a volume of 3 ml […]. The exemplified compounds were then added to the wells, at a final concentration of 25 μM (0.05% DMSO), and incubated for 48 hours. Cellular viability was measured using the commercially available PrestoBlue™ assay (ThermoFisher Scientific, PrestoBlue™ Cell Viability Reagent Cat #A13261). The PrestoBlue™ reagent is a cell-permeant non-fluorescent compound, which is reduced by metabolically active cells and providing a quantitative fluorescent signal. In the assay, 10 μL of the PrestoBlue™ reagent was added to 90 μL of the treated cells and fluorescence measurements were performed done with excitation/emission wavelengths of 560/590 nm in Tecan M200 plate reader.
Tables 1-3 and also the following Table 5 show the results of the BY-2 viability assay described above.

[2] = test system: E. coli cells lacking the endogenic MetB CGS gene and transformed to express the CGS from Arabidopsis; assay: E. coli specificity (MOA): growth of E. coli expressing Arabidopsis CGS with and without methionine; type: cell-based; conditions: score
Description: In addition to the direct binding evaluation, specific assay to test the compounds activity and specificity were also developed. In this assay, E. coli cells, lacking the endogenic MetB CGS gene and transformed to express the CGS from Arabidopsis, were used. These cells were grown on M9 minimal media with and without external methionine supplemented to the cells, in the presence of the compounds of the embodiments. These selected compounds of the embodiments, capable of inhibiting the cell growth on M9, but incapable of affecting the cell growth when supplemented with methionine, were validated as methionine-pathway specific inhibitors.
In this assay, Methionine auxotroph E. coli mutant was transformed with PQE-30 vector containing the Arabidopsis CGS gene as previously described in Yael Hacham et al., Plant Physiol., February 2002, 128(2): 454-462. In order to test the effect of the small molecule inhibitors on the CGS and methionine pathway, growth curves of the E. coli in M9 minimal media with 100 μM IPTG were measured with and without the addition of external methionine (40 mg/L) in the presence of variable compound concentrations. E. coli growth curves were measured by following the optical density at 600 nm of bacteria in 96 well-plate placed within Tecan M200 plate reader in orbital shaking mode at 37° C. The slope of each curve was estimated using the ‘finest’ function in Excel.

Tobacco CGS [3] = biological target: T1, Tobacco CGS; assay: Micro Scale Thermophoresis (MST) direct binding to CGS; set-up: 6xHIS (N, cleaved yes); GB1 solubility tag (N, cleaved yes); made in house; host or cells: E. coli BL21; conditions: score on scale 0-5; Table 3
Description: The direct binding of the compounds of the embodiments to the CGS was tested by Micro Scale Thermophoresis (MST). In the MST assay, the CGS protein was labelled with a fluorophore, the samples were heated, and changes in fluorescence were measured as a function of the ligand concentration. In the MST assay, similar to the expression and purification described above, the recombinant Tobacco CGS protein was expressed in E. coli BL21 cells and purified to homogeneity. For that particular purpose, the pET-11 vector containing the DNA sequence of Tobacco CGS with an N-terminus 6×HIS tag followed by a TEV-cleavable GB1 solubility tag was cloned and transformed into the bacteria cells. Cells were cultured to OD=0.8, and protein expression was induced by the addition of 1 mM IPTG. The cells were cultured for additional 16 hours temperature 25° C.
Following cellular lysis, the soluble fraction was passed through the nickel column and the bound HIS-tagged protein was eluted by 300 mM imidazole. […]
Thus, the MST assay was performed to measure the biding of the compounds to the CGS protein. […] The MST binding curves were then measured using the Monolith NT.115 apparatus by incubating the labelled protein with the indicated compounds in a dose-response manner.

SMILES: O=C(O)C1CN(S(=O)(=O)/C=C/c2ccc(Cl)cc2)c2ccccc21 (stereo not shown)
TEV (relative to DMSO) (Tobacco CGS [1]; Table 1): 0.39
Arabidopsis (relative to DMSO) (Arabidopsis thaliana; Table 1): 0.04
Roquette assay spray (twice average) (Roquette; Table 1): 3.0
Tobacco cells BY-2 (relative DMSO) (BY2 Tobacco cells; Table 1): 21

SMILES: O=C(O)CC1CN(S(=O)(=O)/C=C/c2ccc(Cl)cc2)c2ccccc21 (stereo not shown)
Arabidopsis (relative to DMSO) (Arabidopsis thaliana; Table 1): 0.04
Roquette assay spray (twice average) (Roquette; Table 1): 3.0
Tobacco cells BY-2 (relative DMSO) (BY2 Tobacco cells; Table 1): 12
E. coli specificity (MOA) ([2]; Table 1): 2

SMILES: O=C(O)C1Cc2ccccc2CN1S(=O)(=O)/C=C/c1ccccc1 (stereo not shown)
Arabidopsis (relative to DMSO) (Arabidopsis thaliana; Table 1): 0.20
Tobacco cells BY-2 (relative DMSO) (BY2 Tobacco cells; Table 1): 46
E. coli specificity (MOA) ([2]; Table 1): 4

SMILES: O=C(O)CC1CN(S(=O)(=O)/C=C/c2ccccc2)c2ccccc21 (stereo not shown)
TEV (relative to DMSO) (Tobacco CGS [1]; Table 1): 0.25
Arabidopsis (relative to DMSO) (Arabidopsis thaliana; Table 1): 0.08
Roquette assay spray (twice average) (Roquette; Table 1): 2.5
Tobacco cells BY-2 (relative DMSO) (BY2 Tobacco cells; Table 1): 21
E. coli specificity (MOA) ([2]; Table 1): 5

SMILES: COc1cccc2c1CC(C(=O)O)N2S(=O)(=O)/C=C/c1ccccc1Cl (stereo not shown)
Arabidopsis (relative to DMSO) (Arabidopsis thaliana; Table 1): 0.24
Roquette assay spray (twice average) (Roquette; Table 1): 2.0
Tobacco cells BY-2 (relative DMSO) (BY2 Tobacco cells; Table 1): 17

TEV (relative to DMSO) (Tobacco CGS [1]; Table 1): 0.22
SMILES: COc1cccc2c1[C@@H](C(=O)O)CN2S(=O)(=O)/C=C/c1cccc(Cl)c1
Arabidopsis (relative to DMSO) (Arabidopsis thaliana; Table 1): 0.01
Tobacco cells BY-2 (relative DMSO) (BY2 Tobacco cells; Table 1): 7

SMILES: O=C(O)C1Cc2ccccc2N1S(=O)(=O)c1ccc2ccccc2c1 (stereo not shown)
TEV (relative to DMSO) (Tobacco CGS [1]; Table 2): 0.09
Arabidopsis (relative to DMSO) (Arabidopsis thaliana; Table 2): 0.20
Roquette assay spray (twice average) (Roquette; Table 2): 2.5
Tobacco cells BY-2 (relative DMSO) (BY2 Tobacco cells; Table 2): 30

TEV (relative to DMSO) (Tobacco CGS [1]; Table 2): 0.13
SMILES: O=C(O)C1Cc2ccccc2N1S(=O)(=O)C1Cc2ccccc2C1 (stereo not shown)

SMILES: Cc1ccccc1CS(=O)(=O)Nc1ccc2nncn2c1
Tobacco cells BY-2 (all (relative to DMSO)) (BY2 Tobacco cells): 0
E. coli specificity (MOA) ([2]; Table 3): 5

MST Tobacco (0-5) (Tobacco CGS [3]): 5
SMILES: O=S(=O)(Cc1ccccc1F)Nc1ccc2nncn2c1
Tobacco cells BY-2 (all (relative to DMSO)) (BY2 Tobacco cells): 0

SMILES: Cc1nc(-c2ccc(C)c(S(=O)(=O)Nc3cccc(C(=O)O)c3)c2)cs1 [IML-193]
Arabidopsis root length (Arabidopsis thaliana): 0.50

TEV-relative to DMSO (Tobacco CGS [1]; Table 6): 0.71
SMILES: Cc1nc(-c2cccc(S(=O)(=O)Nc3cccc(C(=O)O)c3)c2)cs1 [IML-198]
Arabidopsis root length (Arabidopsis thaliana): 0.31

SMILES: COc1cccc(S(=O)(=O)Nc2cccc(-c3cn(Cc4ccccc4)nn3)c2)c1 [IML-226]
Tobacco cells BY-2 results/DMSO (BY2 Tobacco cells): 60

SMILES: CCc1nc(-c2cccc(NS(=O)(=O)c3cccc(OC)c3)c2)no1 [IML-227]
Arabidopsis root length (Arabidopsis thaliana): 0.36
Tobacco cells BY-2 results/DMSO (BY2 Tobacco cells): 33
